For the test, the system named is recombinant NL4-3 virus (Renilla luciferase) in MT-2 cells. Briefly: HIV cell culture assay (antiviral activity, luciferase readout in infected MT-2 cells). The settings on record: Renilla. In kind it is cell-based. In short, it runs like this:
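Nef-deleted NL4-3 carrying Renilla luciferase, produced by 293T transfection, used to infect MT-2 cells for 4–5 days with serial compound dilutions. Live-cell luciferase signal read as infection marker; EC50 from exponential median-effect equation.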

Setting [1] is: NL43, read-out: Activity, antiviral activity class, recombinant NL4-3 Renilla luciferase virus in MT-2 cells.
Setting [2] is: NL43, recombinant NL4-3 Renilla luciferase virus in MT-2 cells.

Where two headings read alike, the source gives them in different places.

Here are results for 13 compounds from patent publication US10035760B2, “Inhibitors of human immunodeficiency virus replication” (priority 2013, dated 2018).

`CCN(C(=O)[C@H](Cc1ccccc1)NC(=O)NS(=O)(=O)c1cccc(-c2ccnn2C)c1)c1ccc(OC)cc1` [Example 152, (S)—N-ethyl-N-(4-methoxyphenyl)-2-(3-((3-(1-methyl-1H-pyrazol-5-yl)phenyl)sulfonyl)ureido)-3-phenylpropanamide]: the EC50 is, setting by setting: under setting [1], below 100 nM; under setting [2], 90 nM.
Regarding `Cc1ccccc1S(=O)(=O)NC(=O)N[C@H](CCc1ccccc1)C(=O)N(C)c1ccc2c(c1)OCO2` [Example 210, (R)—N-(benzo[d][1,3]dioxol-5-yl)-N-methyl-4-phenyl-2-(3-(o-tolylsulfonyl)ureido)butanamide], the EC50 under setting [1] lay within 10000 to 100000 nM.
Still for that read-out and setting: with `CCN(C(=O)[C@H](Cc1ccccc1)NC(=O)NS(=O)(=O)c1ccccc1C)c1ccccc1` [Example CA-68, (S)—N-ethyl-N, 3-diphenyl-2-(3-(o-tolylsulfonyl)ureido)propanamide] the figure was 100 to 1000 nM; with `COc1cccc(N(C)C(=O)[C@H](Cc2ccccc2)NC(=O)NS(=O)(=O)c2ccccc2)c1` [Example 89], 100 to 1000 nM.
As for `CN(C(=O)[C@H](Cc1ccccc1)NC(=O)NS(=O)(=O)c1ccccc1Br)c1ccc2c(c1)OCO2` [Example 29, (S)—N-(benzo[d][1,3]dioxol-5-yl)-2-(3-((2-bromophenyl)sulfonyl)ureido)-N-methyl-3-phenylpropanamide], the EC50 under setting [1] is below 100 nM.
Regarding `CN(C(=O)[C@H](Cc1ccccc1)NC(=O)NS(=O)(=O)c1ccccc1Cl)c1ccc2c(c1)OCO2` [Example 7, (S)—N-(benzo[d][1,3]dioxol-5-yl)-2-(3-((2-chlorophenyl)sulfonyl)ureido)-N-methyl-3-phenylpropanamide], the EC50 under setting [1] was below 100 nM.
Take `CCN(C(=O)[C@H](Cc1ccccc1)NC(=O)NS(=O)(=O)c1cccc(-c2cnoc2)c1C)c1ccc(OC)cc1` [Example 159, (S)—N-ethyl-2-(3-((3-(isoxazol-4-yl)-2-methylphenyl)sulfonyl)ureido)-N-(4-methoxyphenyl)-3-phenylpropanamide]: under setting [1], the EC50 was in the range of 100 to 1000 nM.
Same read-out and setting: next, `CN(C(=O)[C@H](Cc1cc(F)cc(F)c1)NC(=O)NS(=O)(=O)c1ccc(F)cc1F)c1ccc2scnc2c1` [Example ZY-17, (S)—N-(benzo[d]thiazol-5-yl)-3-(3,5-difluorophenyl)-2-(3-((2,4-difluorophenyl)sulfonyl)ureido)-N-methylpropanamide]: 100 to 1000 nM.
Regarding `Cc1ccccc1S(=O)(=O)NC(=O)N[C@@H](Cc1ccccc1)C(=O)N(C)c1ccc2c(c1)OCO2` [Example 2, (S)—N-(benzo[d][1,3]dioxol-5-yl)-N-methyl-3-phenyl-2-(3-(o-tolylsulfonyl)ureido)propanamide], the EC50 by setting is: under setting [1], below 100 nM; under setting [2], 70 nM.
The corresponding values for `CCN(C(=O)[C@H](Cc1ccccc1)NC(=O)NS(=O)(=O)c1c(F)cccc1F)c1ccc(OC)cc1` [Example 118, (S)-2-(3-((2,6-difluorophenyl)sulfonyl)ureido)-N-ethyl-N-(4-methoxyphenyl)-3-phenylpropanamide] are below 100 nM and 40 nM.
On to `COc1ccc(N(C)C(=O)[C@H](Cc2ccccc2)NC(=O)NS(=O)(=O)c2ccccc2C)cc1C` [Example CA-77, (S)—N-(4-methoxy-3-methylphenyl)-N-methyl-3-phenyl-2-(3-(o-tolylsulfonyl)ureido)propanamide], for which the EC50 under setting [1] was below 100 nM.
For `CCOc1ccc(N(C)C(=O)[C@H](Cc2ccccc2)NC(=O)NS(=O)(=O)c2ccccc2C)cc1` [Example CA-84, (S)—N-(4-ethoxyphenyl)-N-methyl-3-phenyl-2-(3-(o-tolylsulfonyl)ureido)propanamide], the EC50 under setting [1] was below 100 nM.
With `CCN(C(=O)[C@H](Cc1ccccc1)NC(=O)NS(=O)(=O)c1cccc(C(C)C)c1)c1ccc(OC)cc1` [Example 143, (S)—N-ethyl-2-(3-((3-isopropylphenyl)sulfonyl)ureido)-N-(4-methoxyphenyl)-3-phenylpropanamide], under setting [1], the EC50 was below 100 nM.
